Assay results taken from article PMC8648872, “A host-directed macrocyclic peptide therapeutic for MDR gram negative bacterial infections” (Scientific Reports, 2021).
≈ marks a conversion by molar mass, not a printed value. Where a SMILES comes first, the peptide text is derived from it. Bridges are numbered along the chain shown (N, C = ends).

Tests used:
[1] = Peptide stability in human EDTA plasma; type: in vitro ADME; conditions: 90% (vol/vol) human EDTA-plasma, 37 °C, C18 RP-UPLC with PDA detector, read-out: peptide remaining intact
Protocol: (§1) MTD12813 (final concentration of 100 µg/ml) was added to either 90% human EDTA plasma or 90% human serum and incubated at 37 °C for 48 h. Samples were processed by addition of 10% HOAc and 5% ACN (final concentrations) at time 0 and 48 h, and MTD12813 was quantified by C18 RP-HLPC on an Acquity H-Class UPLC with an analytical PDA detector using Empower 3 software (Waters). All samples were performed with technical replicates and analyzed by UPLC in duplicate and the experiment repeated once. […] A time 0 h sample was collected, and the remaining suspension incubated at 37 °C for 24 h. Samples were processed by addition of 5% formic acid/5% acetonitrile, vortexed, and clarified at 22,000×g for 10 min. Supernatant MTD12813 was then quantified by LC–MS/MS as described in PK section above. All samples were performed with technical replicates and analyzed by LC–MS/MS in duplicate.

[2] = test system: CRE and non-CRE strains of K. pneumoniae and E. coli; type: cell-based; conditions: standard CLSI assay conditions
Protocol: (§2) Bacterial strains were obtained from American Type Culture Collection. K. pneumoniae strains included BAA-1705 (blaKPC-2, hypermucoid), BAA-2146 (blaNDM-1), BAA-700603 (SHV-18, extended spectrum β-lactamase, ESBL), and BAA-1706 (non-CRE reference strain). E. coli strains included BAA-2340 (blaKPC-2), BAA-2471 (blaNDM-1), and ML35 (non-CRE reference strain).
(§3) Minimum inhibitory concentration (MIC) assays were performed ± 50% heat-inactivated mouse serum using Clinical and Laboratory Standards Institute (CLSI; document M07-A9) protocols. Bacteria (5 × 10^5 CFU/ml) were incubated with antibiotics or peptide for 20 h at 37 °C, and bacterial growth was determined by A620 using a SpectraMax M5e plate reader.

neutrophils = test: Neutrophil recruitment (peritoneal lavage and blood); type: in vivo, BALB/c mice
Protocol: (§4) Blood, peritoneal lavage fluid, and spleen homogenates were obtained from mice following by CO2 euthanasia. Citrate-anti-coagulated blood was collected by aseptic cardiac puncture. Peritoneal lavage was performed by injecting 3 ml of PBS into the peritoneal cavity, massaging the abdomen, and then collecting fluid aseptically through a minor incision in the abdominal wall. Spleen was surgically removed and homogenized in sterile PBS using Polytron PT10-35 homogenizer. Samples were serially diluted and plated in triplicate on TSA plates, incubated overnight at 37 °C and colonies counted.
EDTA-anticoagulated blood was collected aseptically by terminal cardiac puncture and analyzed for complete blood cell count using an Element HT5 hematology analyzer (Heska). Blood plasma and clarified peritoneal lavage were prepared by two-step centrifugation described previously. Plasma cytokine levels were quantified using a mouse-specific MILLIPLEX MAP kit (Millipore Cat# MCYTMAG-70K) as described.

Kp-1705 = test: Bacterial burden in Kp-1705 infected mice; type: in vivo, BALB/c mice; conditions: 1.25 mg/kg i.p. 1 h p.i.
Protocol: BALB/c mice (Jackson Laboratories) 8–10 weeks of age were acclimated (3–5 to a cage for at least 5 days prior to infection) in a thermostatically controlled room with 12 h light/dark cycle. Cryopreserved K. pneumoniae cells were thawed and adjusted to a density of 6–10 × 10^8 CFU/ml, confirmed by plating on trypticase soy agar (TSA) plates. E. coli BAA-2340 was grown to log-phase in trypticase soy broth, pelleted, washed with PBS, and resuspended in PBS at 0.5–1 × 10^9 CFU/ml. Mice were infected by i.p. injection of 2–5 × 10^8 CFU of Kp-1705 or 3–6 × 10^7 CFU of E. coli BAA-2340 using a 28 g needle in a volume of 0.5 ml. Post-infection, mice were observed three times a day for at least 4 days and then daily for 28 days. Mice were euthanized when they became moribund. All experiments used both male and female mice and were repeated at least twice.
as §4

[3] = Peptide stability with log-phase Kp-1705 (bacterial proteases); type: in vitro ADME, K. pneumoniae; conditions: suspension of log-phase Kp-1705 bacteria, log-phase Kp-1705 (5 × 10^7 CFU/ml), 50 mM HEPES pH 7.4, 37 °C, LC–MS/MS, read-out: MTD12813 found intact
Protocol: as §1

[4] = LPS neutralization, limulus amebocyte lysate assay; type: biochemical; conditions: 0.5 EU/ml LPS, 0.078–5 μg/ml, 37 °C, 30 min; data not shown
Protocol: A limulus amebocyte lysate endotoxin detection assay (Pierce A39553) protocol was employed by preincubating 0.5 EU/ml of LPS with either MTD12813, RTD-1, or colistin (0.078–5 μg/ml) in H20 at 37 °C for 30 min followed by quantifying free LPS per manufacturer’s instructions. All samples were compared to a LPS standard curve to determine the degree of LPS neutralization.

[5] = test system: K. pneumoniae BAA-1705 (KPC-2); test: microbe, parasite or virus in culture; type: cell-based; conditions: 20 h, 37 °C
Protocol: as §2, §3

K. pneumoniae BAA-1706 = test: microbe, parasite or virus in culture; type: cell-based; conditions: K. pneumoniae BAA-1706, no MDR factor
Protocol: as §2, §3

E. coli ML35 = test: microbe, parasite or virus in culture; type: cell-based; conditions: E. coli ML35, no MDR factor
Protocol: as §2, §3

E. coli BAA-2471 (NDM-1) = test: microbe, parasite or virus in culture; type: cell-based
Protocol: as §2, §3

[6] = test system: K. pneumoniae 700603 (ESBL); test: microbe, parasite or virus in culture; type: cell-based
Protocol: as §2, §3

E. coli BAA-2340 (KPC-2) = test: microbe, parasite or virus in culture; type: cell-based; conditions: E. coli BAA-2340, KPC-2
Protocol: as §2, §3

[7] = test system: K. pneumoniae BAA-2146 (NDM-1); test: microbe, parasite or virus in culture; type: cell-based
Protocol: as §2, §3

[8] = 50% heat inactivated mouse serum
[9] = CLSI, 20 h, 37 °C, A620, no serum

In the case of `CC[C@H](C)[C@@H]1NC(=O)[C@@H]2CSSC[C@H](NC(=O)[C@H]([C@@H](C)CC)NC(=O)[C@@H]3CSSC[C@H](NC1=O)C(=O)N[C@@H](C(C)C)C(=O)NCC(=O)N[C@@H](CCCNC(=N)N)C(=O)NCC(=O)N3)C(=O)N[C@@H](C(C)C)C(=O)N[C@@H](CCCNC(=N)N)C(=O)N[C@@H](CCCNC(=N)N)C(=O)N[C@@H](CCCNC(=N)N)C(=O)N2` [MTD12813] (cyclo(CICVGRGCICVRRR); disulfide 1-10, 3-8), the remaining at 48 h, 100 µg/ml [1] is reported as greater than 95%, the “MIC against all seven organisms of the panel” value [2] is reported as 3.13 to 6.25 µg/mL and the “PLF neutrophils versus saline” value (neutrophils; Kp-1705 infected mice, 1.25 mg/kg i.p. 1 h p.i., 24 h, P = 0.0048) is reported as “threefold increase”. The blood neutrophils (neutrophils; Kp-1705 infected mice, 1.25 mg/kg i.p. 1 h p.i., peak at ca. 2 h p.i.) was “transient peripheral blood neutrophilia”, the “PLF neutrophil numbers in sham-infected mice” value (neutrophils; sham-infected mice, 24 h after peptide delivery) was “no increase in neutrophil numbers” and the “reduction of viable bacteria versus saline, PLF” value (Kp-1705; 4 h p.i.) was 99.5%. The “reduction of viable bacteria versus saline, blood” value (Kp-1705; 4 h p.i.) was 79.1%, the “reduction of viable bacteria versus saline, spleen” value (Kp-1705; 4 h p.i.) was 70.4% and the “reduction of bacterial burden, PLF” value (Kp-1705; 24 h) was 99.8%. For the same compound, the “reduction of bacterial burden, blood” value (Kp-1705; 24 h) was 93.8%, the “reduction of bacterial burden, spleen homogenates” value (Kp-1705; 24 h) was 94.4% and the remaining at 24 h, 1.25 µg/ml [3] was 72.4 ± 0.93%. The “LPS inhibition (neutralization)” value [4] was “No LPS inhibition”, the MIC ([5]; CLSI M07-A9, 5 × 10^5 CFU/ml, A620, no serum) was 6.25 µg/mL (≈ 3.98 µM) and the MIC ([5]; in the presence of 50% heat inactivated mouse serum, A620) was greater than 100 µg/mL. The MIC (K. pneumoniae BAA-1706; [8]) was greater than 100 µg/mL, the MIC (K. pneumoniae BAA-1706; [9]) was 3.13 µg/mL (≈ 1.99 µM) and the MIC (E. coli ML35; [8]) was greater than 100 µg/mL. It also gave an MIC (E. coli ML35; [9]) of 3.13 µg/mL (≈ 1.99 µM), an MIC (E. coli BAA-2471 (NDM-1); [8]) of 100 µg/mL (≈ 63.6 µM) and an MIC (E. coli BAA-2471 (NDM-1); [9]) of 3.13 µg/mL (≈ 1.99 µM). It also gave an MIC [6, 8] greater than 100 µg/mL, an MIC [6, 9] of 6.25 µg/mL (≈ 3.98 µM) and an MIC (E. coli BAA-2340 (KPC-2); [8]) greater than 100 µg/mL. The MIC (E. coli BAA-2340 (KPC-2); [9]) was 6.25 µg/mL (≈ 3.98 µM), the MIC [7, 8] was greater than 100 µg/mL and the MIC [7, 9] was 6.25 µg/mL (≈ 3.98 µM).
